# Source: PMC6442119, “The antitumor activity of CYB-L10, a human topoisomerase IB catalytic inhibitor” (Journal of Enzyme Inhibition and Medicinal Chemistry, 2019)
# “Also recorded” adds a separate entry of the source.
# Tests used:
# HCT116 = experiment: MTT assay; format: cell-based; details: Homo sapiens, HCT-116; Parental cell line HCT116, MTT, 72 h
# HepG2/ADR = experiment: MTT assay; format: cell-based, human
# HCT116 xenograft = experiment: In vivo antitumor activity, HCT116 xenograft; parameters: species or system nude mice; details: for tumor weight inhibition (TWI): HCT116 xenograft nude mice
# Procedure: Athymic nude mice bearing the nu/nu gene were obtained from Laboratory Animal Center of Sun Yat-sen University and maintained in pathogen-free conditions to establish the model of xenografts of HCT116. All animals were used under the Policy on the Care and Use of Laboratory Animal of Sun Yat-sen University. Male nude mice 4–5 weeks old weighing 12–15 g were used. HCT116 tumor preinduced in the mice by subcutaneously injecting of HCT116 cells (100 µL, 1 × 10^7 cells) was implanted. When the implanted tumors had reached a volume of about 80 mm^3, the mice were randomly divided into three groups (n = 5) and administered by i.p. injection at a frequency of once every 3 days. The testing groups were treated with CYB-L10 at 20 mg/kg and 6.7 mg/kg dose, respectively. The control group was treated with an equivalent volume of saline. Tumor volumes (V) were monitored by caliper measurement of the length and width, and calculated using the formula: V = (larger diameter) × (smaller diameter)^2/2, and growth curves were plotted using average tumor volume within each experimental group at the set time points. At the end of treatment, the animals were sacrificed, and the tumors were removed and weighed. The tumor weight inhibition (TWI) was calculated according to the formula: TWI = (1 − Mean tumor weight of the experimental group/Mean tumor weight of the control group) × 100%. Statistical comparisons were conducted using a one-way analysis of variance, followed by Tukey’s test.
# A human colon cancer HCT116 xenograft nude mice model was established to evaluate the antitumor efficiency of CYB-L10 in vivo. Mice were randomly divided into three groups and administered i.p. injection at a frequency of once every 3 days. Two groups were treated with CYB-L10 at 20 mg/kg and 6.7 mg/kg dose, respectively. The negative control group was treated with an equivalent volume of saline.
# P-glycoprotein (Pgp) = P-glycoprotein (Pgp) (Homo sapiens, UniProt P08183); experiment: Pgp substrate assessment in Pgp-overexpressing resistant sublines; details: from MCF-7/ADR and HepG2/ADR sublines with overexpressed Pgp
# HCT116-siTop1 = experiment: MTT assay; format: cell-based; details: Homo sapiens; Resistant subline HCT116-siTop1, MTT, 72 h
# CAKI-1 = experiment: NCI60 assay; format: cell-based; details: Homo sapiens; Renal cancer, CAKI-1, 48 h
# Procedure: (§1) CYB-L10 was tested using the protocols by the NCI, which has been described previously. […] The overall antiproliferative potential is quantified as a mean-graph midpoint (MGM). […] It was selected and submitted to National Cancer Institute (NCI, USA) for a developmental therapeutics assay against the 60 clinical tumor cell lines representing nine tissue types (NCI60)[23–25]. The tumor cells were incubated with CYB-L10 for 48 h and stained with sulphorhodamine B dye. Cell growth inhibition (GI50) was calculated relative to the control without compound.
# SF-268 = experiment: NCI60 assay; format: cell-based; details: Homo sapiens; CNS cancer, SF-268, 48 h
# Procedure: as §1
# SK-MEL-28 = experiment: NCI60 assay; format: cell-based; details: Homo sapiens; Melanoma, SK-MEL-28, 48 h
# Procedure: as §1
# NCI-H522 = experiment: NCI60 assay; format: cell-based; details: Homo sapiens; Non-small cell lung cancer, NCI-H522, 48 h
# Procedure: as §1
# SF-295 = experiment: NCI60 assay; format: cell-based; details: Homo sapiens; CNS cancer, SF-295, 48 h
# Procedure: as §1
# OVCAR-5 = experiment: NCI60 assay; format: cell-based; details: Homo sapiens; Ovarian cancer, OVCAR-5, 48 h
# Procedure: as §1
# A498 = experiment: NCI60 assay; format: cell-based; details: Homo sapiens; Renal cancer, A498, 48 h
# Procedure: as §1
# P-glycoprotein (Pgp), sequence (P08183 whole entry): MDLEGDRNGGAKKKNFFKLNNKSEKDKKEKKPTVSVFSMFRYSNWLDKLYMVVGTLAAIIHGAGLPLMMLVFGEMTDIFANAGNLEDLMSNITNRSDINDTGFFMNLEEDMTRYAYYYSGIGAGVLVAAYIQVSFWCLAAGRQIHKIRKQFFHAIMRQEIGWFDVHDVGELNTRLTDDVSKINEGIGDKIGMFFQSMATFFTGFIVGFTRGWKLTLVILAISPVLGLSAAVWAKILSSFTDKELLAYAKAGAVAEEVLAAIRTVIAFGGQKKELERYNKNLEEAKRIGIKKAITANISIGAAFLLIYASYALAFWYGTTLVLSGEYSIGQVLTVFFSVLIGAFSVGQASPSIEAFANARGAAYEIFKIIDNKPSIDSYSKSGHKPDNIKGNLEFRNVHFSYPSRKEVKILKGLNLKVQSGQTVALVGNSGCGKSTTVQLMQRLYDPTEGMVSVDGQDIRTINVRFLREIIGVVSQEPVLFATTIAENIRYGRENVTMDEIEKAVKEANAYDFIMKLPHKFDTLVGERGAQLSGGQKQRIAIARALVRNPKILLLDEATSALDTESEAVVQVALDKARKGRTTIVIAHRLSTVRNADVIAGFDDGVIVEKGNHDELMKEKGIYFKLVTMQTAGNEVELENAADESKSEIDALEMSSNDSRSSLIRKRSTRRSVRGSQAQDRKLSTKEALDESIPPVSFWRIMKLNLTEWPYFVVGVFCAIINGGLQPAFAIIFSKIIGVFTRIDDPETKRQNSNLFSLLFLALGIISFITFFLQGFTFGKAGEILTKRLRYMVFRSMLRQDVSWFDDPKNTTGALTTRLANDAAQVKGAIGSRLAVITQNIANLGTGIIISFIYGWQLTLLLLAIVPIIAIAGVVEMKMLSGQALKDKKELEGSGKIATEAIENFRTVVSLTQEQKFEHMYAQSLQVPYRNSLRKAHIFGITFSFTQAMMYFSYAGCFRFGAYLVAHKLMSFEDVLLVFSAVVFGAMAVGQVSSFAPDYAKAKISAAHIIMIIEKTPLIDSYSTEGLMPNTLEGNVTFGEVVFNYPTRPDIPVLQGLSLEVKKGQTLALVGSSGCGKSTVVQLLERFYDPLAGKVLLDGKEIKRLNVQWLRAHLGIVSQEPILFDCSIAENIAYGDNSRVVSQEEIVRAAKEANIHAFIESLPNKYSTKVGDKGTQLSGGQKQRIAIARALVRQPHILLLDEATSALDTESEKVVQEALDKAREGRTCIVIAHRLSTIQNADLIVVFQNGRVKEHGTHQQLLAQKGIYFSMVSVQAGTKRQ
structure (smiles),measurement,setting,value
O=C1c2cccnc2C(=O)c2c1c(C(=O)OCCN1CCOCC1)c1ccccn21 [CYB-L10],GI50,HCT116,27 ± 24 nM
same,Resistance ratio,HepG2/ADR; GI50 HepG2/ADR / GI50 HepG2,11.4
same,GI50,"HepG2/ADR; Homo sapiens, Resistant subline HepG2/ADR, MTT, 72 h",740 ± 240 nM
same,tumor weight inhibition (TWI),HCT116 xenograft; 6.7 mg/kg i.p. once every 3 days,27.6%
same,tumor weight inhibition (TWI),"HCT116 xenograft; 20 mg/kg i.p. once every 3 days, p < 0.05",38.3%
same,body weight of the mice,"HCT116 xenograft; 20 and 6.7 mg/kg i.p., vs negative control",no obvious loss
same,tumor volume,"HCT116 xenograft; 20 and 6.7 mg/kg i.p., vs negative control, dose-dependent",obviously reduced the tumor volume
same,substrate of the Pgp,P-glycoprotein (Pgp),not a substrate of the P-glycoprotein; also recorded: not to be a substrate of the Pgp
same,GI50,HCT116-siTop1,190 ± 92 nM
same,GI50,CAKI-1,33.9 nM
same,GI50,SF-268,18.5 nM
same,GI50,SK-MEL-28,54.6 nM
same,GI50,NCI-H522,11.9 nM
same,GI50,SF-295,25.7 nM
same,GI50,OVCAR-5,648 nM
same,GI50,A498,34.3 nM
